Source: US20260364214A1, “MULTIVALENT FIBROBLAST ACTIVATION PROTEIN LIGANDS FOR TARGETED DELIVERY APPLICATIONS” (Philochem AG, priority 2022, published 2026)

What was measured:
[1] = Determination of Log D7.4 (1-octanol/PBS); assay type: physicochemical; conditions: 1-octanol/PBS pH 7.4; 177Lu-labeled
Method: The lipophilicity of ^177Lu-ESV6, ^177Lu-Bi-ESV6, ^177Lu-Tri-ESV6 and ^177Lu-FAP-2286 was determined as follows. 100 μL aliquots of the radioligand (~1 MBq) in PBS buffer were added to PBS buffer (500 μL, pH 7.4) and 1-octanol (600 μL). The two-layer mixture were vigorously shaken for 10 minutes on a vortex mixer and then centrifuged at 700 rpm for 5 min to facilitate the separation. 100 μL aliquots of both layers were measured in a Packard Cobra Gamma Counter and the partition coefficient was determined by dividing cpm (octanol) by cpm (PBS) and indicated as Log D7.4. • Log D7.4 (^177Lu-ESV6): −4.13 • Log D7.4 (^177Lu-Bi-ESV6): −3.75 • Log D7.4 (^177Lu-Tri-ESV6): −3.10 • Log D7.4 (^177Lu-FAP-2286): −3.05

SK-RC-52.hFAP tumors = assay: Quantitative biodistribution in SK-RC-52.hFAP tumor bearing mice; assay type: in vivo, mouse (female athymic Balb/c AnNRj-Foxn1); conditions: i.v. 250 nmol/kg, 50 MBq/kg
Method: SK-RC-52.hFAP were grown to 80% confluence in RPMI-1640 with 10% fetal bovine serum (FBS) and 1% antibiotic-antimycotic and detached with Trypsin-EDTA (ethylenediaminetetraacetic acid) 0.05%. Tumor cells were resuspended in Hanks' Balanced Salt Solution medium. Aliquots of 5 million cells (100 μL of suspension) were injected subcutaneously in the right flank of female athymic Balb/c AnNRj-Foxn1 mice (6 to 8 wk of age).
Radiolabeling of ESV6-DOTAGA, Bi-ESV6-DOTAGA, Tri-ESV6-DOTAGA, Tetra-ESV6-DOTAGA, Hexa-ESV6-DOTAGA, Octa-ESV6-DOTAGA and FAP-2286 with lutetium-177 (a therapeutic radionuclide) was performed with different specific activities for three different studies (biodistribution, therapy and dose optimization).
Prior to the biodistribution study, precursors (100 nmol) were dissolved in 100 μL of milliQ water and diluted with 200 μL of sodium acetate (1 M in water, pH=4.5). 20 MBq of ^177Lu solution were added and the mixture was heated at 90 °C for 10 minutes, followed by dilution with […] of PBS to achieve final volume of 2 mL (20 doses of 100 μL each).
ESV6-DOTAGA, Bi-ESV6-DOTAGA, Tri-ESV6-DOTAGA, Tetra-ESV6-DOTAGA, Hexa-ESV6-DOTAGA, Octa-ESV6-DOTAGA and FAP-2286 were radiolabeled with ^177Lu as described above. Tumors were allowed to grow to an average volume of 300 mm^3. Mice were randomized and injected intravenously with radiolabeled preparations of ^177Lu-ESV6, ^177Lu-Bi-ESV6, ^177Lu-Tri-ESV6, Tetra-ESV6-DOTAGA, Hexa-ESV6-DOTAGA, Octa-ESV6-DOTAGA or ^177Lu-FAP-2286 (250 nmol/kg; 50 MBq/kg). Mice were euthanized at different time-points after the intravenous injection by CO2 asphyxiation. Tumors, organs, and blood were collected, weighted, and radioactivity was measured with a Packard Cobra Gamma Counter. Values are expressed as percent ID/g±SD [FIG. 4]. The % ID/g in the tumors was corrected considering the SK-RC-52.hFAP tumor growth rate.
Quantitative in vivo biodistribution of ^177Lu-ESV6-DOTAGA, ^177Lu-Bi-ESV6-DOTAGA, ^177Lu-Tri-ESV6-DOTAGA, ^177Lu-FAP-2286, Tetra-ESV6-DOTAGA, Hexa-ESV6-DOTAGA and Octa-ESV6-DOTAGA at different time points after intravenous administration (250 nmol/kg, 50 MBq/kg) in mice bearing SK-RC-52.hFAP tumors, are shown in Tables 1 to 4 and 10 to 12. Data are reported as % ID/g±standard deviation.
Tumor-to-organ ratios of ^177Lu-ESV6-DOTAGA, ^177Lu-Bi-ESV6-DOTAGA, ^177Lu-Tri-ESV6-DOTAGA, ^177Lu-FAP-2286, Tetra-ESV6-DOTAGA, Hexa-ESV6-DOTAGA and Octa-ESV6-DOTAGA, at different time points after intravenous administration (250 nmol/kg, 50 MBq/kg) in mice bearing SK-RC-52.hFAP tumors, are shown in Tables 5 to 8 and 13 to 15. Avg.=average; Std.d=standard deviation.

[2] = 6 h post injection, listed as 177Lu-TriESV6-DOTAGA, 360 min

## N#CC1CC(F)(F)CN1C(=O)CNC(=O)c1ccnc2c(NC(=O)CCC(=O)NCCNC(=O)CCOCC(COCCC(=O)NCCNC(=O)CCC(=O)Nc3cccc4c(C(=O)NCC(=O)N5CC(F)(F)CC5C#N)ccnc34)(COCCC(=O)NCCNC(=O)CCC(=O)Nc3cccc4c(C(=O)NCC(=O)N5CC(F)(F)CC5C#N)ccnc34)NC(=O)CCC(C(=O)O)N3CCN(CC(=O)[O-])CCN(CC(=O)[O-])CCN(CC(=O)[O-])CC3)cccc12.[177Lu+3] (stereo not shown) [^177Lu-Tri-ESV6-DOTAGA]
[1]
  Log D7.4: −3.10
SK-RC-52.hFAP tumors; 6 h
  Tumor to organs ratio, Blood: 260.4
  Tumor to organs ratio, Heart: 215.4
  Tumor to organs ratio, Intestine: 188.9
  Tumor to organs ratio, Kidney: 22.9
  Tumor to organs ratio, Liver: 76.3
  Tumor to organs ratio, Lung: 128.8
  Tumor to organs ratio, Muscle: 187.0
  Tumor to organs ratio, Spleen: 196.0
  Tumor to organs ratio, Tail: 48.4
SK-RC-52.hFAP tumors; 6 h post injection
  Injected dose per gram, Blood: 0.25 % ID/g
  Injected dose per gram, Heart: 0.23 % ID/g
  Injected dose per gram, Intestine: 0.26 % ID/g
  Injected dose per gram, Kidney: 2.14 % ID/g
  Injected dose per gram, Lung: 0.38 % ID/g
  Injected dose per gram, Muscle: 0.45 % ID/g
  Injected dose per gram, Tail: 1.06 % ID/g
SK-RC-52.hFAP tumors; 24 h
  Tumor to organs ratio, Blood: 284.8
  Tumor to organs ratio, Heart: 269.1
  Tumor to organs ratio, Intestine: 243.1
  Tumor to organs ratio, Kidney: 17.2
  Tumor to organs ratio, Liver: 43.9
  Tumor to organs ratio, Lung: 196.9
  Tumor to organs ratio, Muscle: 159.9
  Tumor to organs ratio, Spleen: 384.4
  Tumor to organs ratio, Tail: 65.3
SK-RC-52.hFAP tumors; 24 h post injection
  Injected dose per gram, Blood: 0.07 % ID/g
  Injected dose per gram, Heart: 0.08 % ID/g
  Injected dose per gram, Intestine: 0.10 % ID/g
  Injected dose per gram, Kidney: 1.16 % ID/g
  Injected dose per gram, Liver: 0.46 % ID/g
  Injected dose per gram, Lung: 0.10 % ID/g
  Injected dose per gram, Muscle: 0.18 % ID/g
  Injected dose per gram, Spleen: 0.16 % ID/g
  Injected dose per gram, Tail: 0.31 % ID/g
  Injected dose per gram, Tumor: 19.78 % ID/g
SK-RC-52.hFAP tumors; 48 h
  Tumor to organs ratio, Blood: 1925.8
  Tumor to organs ratio, Heart: 559.6
  Tumor to organs ratio, Intestine: 282.6
  Tumor to organs ratio, Kidney: 21.4
  Tumor to organs ratio, Liver: 56.2
  Tumor to organs ratio, Lung: 299.5
  Tumor to organs ratio, Muscle: 1095.4
  Tumor to organs ratio, Spleen: 244.8
  Tumor to organs ratio, Tail: 136.9
SK-RC-52.hFAP tumors; 48 h post injection
  Injected dose per gram, Blood: 0.01 % ID/g
  Injected dose per gram, Heart: 0.03 % ID/g
  Injected dose per gram, Intestine: 0.06 % ID/g
  Injected dose per gram, Kidney: 0.78 % ID/g
  Injected dose per gram, Liver: 0.31 % ID/g
  Injected dose per gram, Lung: 0.06 % ID/g
  Injected dose per gram, Muscle: 0.04 % ID/g
  Injected dose per gram, Spleen: 0.10 % ID/g
  Injected dose per gram, Tail: 0.14 % ID/g
  Injected dose per gram, Tumor: 16.64 % ID/g
SK-RC-52.hFAP tumors; 72 h
  Tumor to organs ratio, Blood: 7913.2
  Tumor to organs ratio, Heart: 344.2
  Tumor to organs ratio, Intestine: 498.0
  Tumor to organs ratio, Kidney: 24.8
  Tumor to organs ratio, Liver: 1294.6
  Tumor to organs ratio, Lung: 477.1
  Tumor to organs ratio, Muscle: 536.6
  Tumor to organs ratio, Spleen: 92.1
  Tumor to organs ratio, Tail: 108.9
SK-RC-52.hFAP tumors; 72 h post injection
  Injected dose per gram, Blood: 0.01 % ID/g
  Injected dose per gram, Heart: 0.07 % ID/g
  Injected dose per gram, Intestine: 0.07 % ID/g
  Injected dose per gram, Kidney: 0.83 % ID/g
  Injected dose per gram, Liver: 0.34 % ID/g
  Injected dose per gram, Lung: 0.11 % ID/g
  Injected dose per gram, Muscle: 0.04 % ID/g
  Injected dose per gram, Spleen: 0.24 % ID/g
  Injected dose per gram, Tail: 0.19 % ID/g
  Injected dose per gram, Tumor: 20.19 % ID/g
SK-RC-52.hFAP tumors; 96 h
  Tumor to organs ratio, Blood: 3504
  Tumor to organs ratio, Heart: 492
  Tumor to organs ratio, Intestine: 763
  Tumor to organs ratio, Kidney: 22
  Tumor to organs ratio, Liver: 41
  Tumor to organs ratio, Lung: 344
  Tumor to organs ratio, Muscle: 514
  Tumor to organs ratio, Spleen: 69
  Tumor to organs ratio, Tail: 98
SK-RC-52.hFAP tumors; 96 h post injection
  Injected dose per gram, Blood: 0.00 % ID/g
  Injected dose per gram, Heart: 0.03 % ID/g
  Injected dose per gram, Intestine: 0.02 % ID/g
  Injected dose per gram, Kidney: 0.73 % ID/g
  Injected dose per gram, Liver: 0.40 % ID/g
  Injected dose per gram, Lung: 0.06 % ID/g
  Injected dose per gram, Muscle: 0.03 % ID/g
  Injected dose per gram, Spleen: 0.24 % ID/g
  Injected dose per gram, Tail: 0.17 % ID/g
  Injected dose per gram, Tumor: 16.26 % ID/g
SK-RC-52.hFAP tumors; 6 h post injection, 360 min
  Injected dose per gram, Liver: 0.65 % ID/g
  Injected dose per gram, Spleen: 0.30 % ID/g
  Injected dose per gram, Tumor: 48.96 % ID/g
SK-RC-52.hFAP tumors; [2]
  Injected dose per gram, Liver: ~ 0.7 % ID/g
  Injected dose per gram, Spleen: ~ 0.3 % ID/g
  Injected dose per gram, Tumor: ~ 49 % ID/g
SK-RC-52.hFAP tumors
  tumor uptake / biodistribution profile, in words: best biodistribution profile
